Here are results for one molecule from patent US12714680B2, “Composition for anti-aging or skin regeneration comprising Okanin” (POSCO CO., LTD, priority 2020, dated 2026).

Format in all cases: cell-based
For one data set, the target named is EGFR (Homo sapiens, UniProt P00533). Briefly: EGFR activity measurement biosensor system (EGFP-SH2 fluorescence signals). The conditions noted are these: 100 μM Okanin; cells cultured in serum-free medium 24 hours; compared to DMSO control; FIG. 1. How it is done: In addition, by using the feature that, when the activities of the EGFR continue to be maintained, the EGFR is internalized into the cell, the cell of the biosensor system that may measure the activities of the EGFR was used in the present experimentation (see Korean Laid-open Patent Publication No. 2019-0014340). […] After culturing the cells in a serum-free medium for 24 hours, the cells were treated with Okanin.

The subject of data set [1] is HaCaT cells. The data set can be described thus: Cytotoxicity depending on the concentrations of Okanin (cell viability). How it is done:
The cytotoxicity of Okanin was measured using HaCaT cells as keratinocytes. When cells are treated with MTT tetrazolium which is a yellow water-soluble substrate, such a substrate is reduced to MTT formazan by mitochondrial enzymes, and the color changes to blue-purple. That is, since the blue-violet color appears darker as the number of living cells increases, the blue-violet absorbance at a wavelength of 540 nm reflects the concentration of living cells. Specifically, after culturing cells to fill each well of a 96-well plate, the cells were treated with Okanin at concentrations of 0, 10, 25, 50 and 100 μM, and cultured for 24 hours and 48 hours in a 5% CO2 incubator at 37° C. Thereafter, cell viability was measured using MIT reagent. A control group not treated with Okanin (0 μM) was treated with the same amount of the solvent DMSO.

The test system of the next data set is ERK. Briefly: Activation (phosphorylation) of ERK by Western blotting in HaCaT cells. The note with it: serum-free medium, FIG. 3. How it is done:
(§1) It is well known that the activities of extracellular signal-regulated kinase (ERK) and protein kinase B (AKT) transmit signals necessary for cell growth and survival by the activities of an EGFR. In addition, in Experimental Example 1, it was observed that Okanin generated signals due to activation of the EGFR in the cells of the biosense system for measuring the activities of the EGFR. Accordingly, it was measured whether the activities of the EGFR were induced by Okanin to the activities of the ERK and AKT. Specifically, HaCaT cells were cultured in a serum-free medium, treated with 10 μM. of Okanin for 10 minutes, 30 minutes and 60 minutes, respectively, and, thereafter, phosphorylated and activated ERK and AKT were analyzed by Western blotting. As antibodies, a phosphorylation antibody as a marker of activated ERK and AKT, and a general antibody for measuring all of them were used, respectively.
(A western blot detects proteins with antibodies after separation by electrophoresis.)

In the next data set the test system is AKT. Briefly: Activation (phosphorylation) of AKT by Western blotting in HaCaT cells. The note with it: serum-free medium, FIG. 3. How it is done:
as §1

The next data set relates to egr1. The data set can be described thus: Gene expression change by real-time quantitative PCR in HaCaT cells: egr1. The conditions noted are these: 10 μM Okanin, 1 hour, serum-free, corrected with β-actin, FIG. 4. From the text:
(§2) Signaling by an EGFR induces the expression of genes important for cell growth and survival through important signaling mediator proteins such as ERK and AKT. The egr1, c-myc, c-jun and c-fos genes are regulated by the EGFR and are well known as genes that promote cell growth and survival. […] Specifically, Tri-reagent was used for mRNA extraction, cDNA was created by a reverse transcription polymerase chain reaction (RT-PCR) using a poly-A primer and a reverse transcriptase, and real-time quantitative PCR was used to measure the amount of each mRNA. The amount of each mRNA was corrected with the amount of β-actin, which is a constitutive gene.

A further data set relates to c-myc. Briefly: Gene expression change by real-time quantitative PCR in HaCaT cells: c-myc. The conditions noted are these: 10 μM Okanin, 1 hour, serum-free, corrected with β-actin, FIG. 4.
Source text: as §2

A further data set relates to c-jun. The data set can be described thus: Gene expression change by real-time quantitative PCR in HaCaT cells: c-jun. The conditions noted are these: 10 μM Okanin, 1 hour, serum-free, corrected with β-actin, FIG. 4.
Source text: as §2

Another data set relates to c-fos. The data set can be described thus: Gene expression change by real-time quantitative PCR in HaCaT cells: c-fos. The note with it: 10 μM Okanin, 1 hour, serum-free, corrected with β-actin, FIG. 4.
Source text: as §2

For data set [2], the system named is HaCaT cells. The data set can be described thus: Growth and proliferation of keratinocytes (CCK-8 assay). The conditions noted are these: 24 hours, serum-free, vs negative control (DMSO), p<0.05, FIG. 5. The method, then:
Cell counting kit-8 (CCK-8) is a water-soluble tetrazolium salt reagent called WST-8 and forms orange-colored water-soluble Formazan by dehydrogenase in the mitochondria of living cells. […] After cultured for 24 hours, the cells were treated with CCK8, and the cell growth was analyzed by measuring absorbance at 450 nm.

For data set [3], the system named is HaCaT cells. The data set can be described thus: Wound healing assay. The note with it: 1 μM Okanin, culture for 6 days, serum-free; vs negative control; significant difference from the 3rd day (p<0.05); FIGS. 6A, 6B. The method, then: The cell growth promoting effect of Okanin was confirmed through Wound healing assay. Specifically, after fully culturing HaCaT cells in a 12-well plate, cells on a certain area were scraped off using a yellow tip to form a wound area, changed to a serum-free medium, and treated with 1 μM of Okanin.

Data set [4] relates to HaCaT cells. Briefly: Resistance to cell damage induced by UVB (cell viability, CCK-8). The note with it: 1 μM Okanin, UVB 500 mJ/cm2, serum-free, negative control about 40%, p<0.05, FIG. 7. The method, then:
Among the ultraviolet wavelengths, UVB wavelengths corresponding to 280 to 315 nm penetrate the epidermal layer where many keratinocytes exist to cause cell damage. […] The solvent DMSO was used as a negative control group, and the cell viability was measured using the CCK-8 method used in Experimental Example 5.

Molecules are shown by their SMILES. Where only a bound is given, the exact number is not on record here.

Sequence of EGFR (P00533 25-1210, species assumed): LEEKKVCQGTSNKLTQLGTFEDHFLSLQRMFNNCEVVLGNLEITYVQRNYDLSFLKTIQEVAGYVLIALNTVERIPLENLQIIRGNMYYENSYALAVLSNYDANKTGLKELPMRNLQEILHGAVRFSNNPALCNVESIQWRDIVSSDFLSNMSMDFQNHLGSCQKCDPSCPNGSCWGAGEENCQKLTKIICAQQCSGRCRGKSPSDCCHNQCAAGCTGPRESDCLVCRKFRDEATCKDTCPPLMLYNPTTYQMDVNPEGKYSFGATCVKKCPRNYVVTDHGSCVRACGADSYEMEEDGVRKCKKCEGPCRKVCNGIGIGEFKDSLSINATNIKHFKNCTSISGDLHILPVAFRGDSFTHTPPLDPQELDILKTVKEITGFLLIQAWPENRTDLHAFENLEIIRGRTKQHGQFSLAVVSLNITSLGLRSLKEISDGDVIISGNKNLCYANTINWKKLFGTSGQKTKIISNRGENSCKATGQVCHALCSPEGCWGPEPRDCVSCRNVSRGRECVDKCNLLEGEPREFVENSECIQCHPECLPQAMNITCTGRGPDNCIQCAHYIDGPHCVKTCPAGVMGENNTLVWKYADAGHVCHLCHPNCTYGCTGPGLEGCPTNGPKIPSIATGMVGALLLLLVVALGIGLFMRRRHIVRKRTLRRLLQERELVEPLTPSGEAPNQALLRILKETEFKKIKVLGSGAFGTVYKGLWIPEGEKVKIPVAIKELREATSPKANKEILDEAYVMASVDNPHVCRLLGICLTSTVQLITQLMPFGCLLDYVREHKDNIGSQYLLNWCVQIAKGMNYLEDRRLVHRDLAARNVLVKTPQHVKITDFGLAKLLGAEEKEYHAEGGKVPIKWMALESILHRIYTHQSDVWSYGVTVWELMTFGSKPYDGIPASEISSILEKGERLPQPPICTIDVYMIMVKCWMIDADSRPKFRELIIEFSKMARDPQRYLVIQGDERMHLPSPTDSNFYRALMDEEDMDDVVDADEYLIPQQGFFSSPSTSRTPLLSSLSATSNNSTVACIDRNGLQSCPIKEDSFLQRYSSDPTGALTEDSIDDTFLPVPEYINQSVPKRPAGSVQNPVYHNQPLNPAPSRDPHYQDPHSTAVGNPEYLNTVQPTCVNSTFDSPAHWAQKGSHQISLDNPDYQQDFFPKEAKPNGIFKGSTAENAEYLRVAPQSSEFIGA

As for `O=C(/C=C/c1ccc(O)c(O)c1)c1ccc(O)c(O)c1O` [Okanin, 2′,3,3′,4,4′-pentahydroxychalcone], on EGFR, the “EGFR activation (fluorescence signals of biosensor cells)” value is reported as “activated”. The cytotoxicity result in the data set with HaCaT cells [1] (25 μM, cultured 24 hours and 48 hours, FIG. 2) is “some cytotoxicity”; in the data set on HaCaT cells [1] (50 μm, cultured 24 hours and 48 hours, FIG. 2), “some cytotoxicity”; in the data set with HaCaT cells [1] (concentration of 10 μM or less) it was “free of cytotoxicity”. Besides, in the data set with ERK (10 μM Okanin for 10 minutes), the “induction of the activities of ERK” value is recorded as “sufficiently induced”. Besides, the “time within which ERK was rapidly activated” value in the data set on ERK (10 μM Okanin) was not above 30 min. In addition, in the data set with AKT (10 μM Okanin for 10 minutes), the “induction of the activities of AKT” value was “sufficiently induced”. Further, the “time within which AKT was rapidly activated” value with AKT (10 μM Okanin) was not above 30 min. Besides, in the data set with egr1, the “egr1 mRNA” value was “increased”. In the data set on c-myc, the “c-myc mRNA” value is “increased”. Also, in the data set with c-jun, the “c-jun mRNA” value is reported as “increased”. Also, the “c-fos mRNA” value with c-fos is recorded as “increased”. Further, the “growth and proliferation of cells” value in the data set with HaCaT cells [2] (100 nM Okanin), with HaCaT cells [2] (1 μM Okanin) and with HaCaT cells [2] (10 μM Okanin) was “significantly increased” in each case. Besides, the “filling of the wound area” value in the data set with HaCaT cells [3] is “more quickly filled”. Besides, the “cells survived after UVB” value with HaCaT cells [4] is on record as “about 60%”.
